According to patent US8450305B2, “Macrocyclic compounds useful as inhibitors of kinases and HSP90” (Universite de Strasbourg, priority 2006, dated 2013):
Where two headings read alike, the source gives them in different places.

Tests used:
HCC1954 tumor cells = assay: Cytotoxicity, MTS assay, HCC1954; assay type: cell-based; settings: Homo sapiens, 72 hours
Protocol: (§1) Tumor cells were grown as adherent monolayers at 37° C. in a humidified atmosphere (5% CO2, 95% air). The culture medium was RPMI 1640 containing 2 mM L-glutamine (Ref BE12-702F, Cambrex, Verviers, Belgium) and supplemented with 10% fetal bovine serum (Ref DE14-801E, Cambrex). For experimental use, the adherent tumour cells were detached from the culture flask by a 5-minute treatment with trypsin-versene (Ref O2-007E, Cambrex), diluted in Hanks' medium without calcium or magnesium (Ref BE10-543F, Cambrex) and neutralized by addition of complete culture medium. Before use, cells were counted in a hemocytometer and their viability were assessed by 0.25% trypan blue exclusion. Mycoplasma detection was performed using the MycoAlert® Mycoplasma Detection Kit (Ref LT07-318, Cambrex) in accordance with the manufacturer instructions. The MycoAlert®Assay is a selective biochemical test that exploits the activity of mycoplasmal enzymes. The viable mycoplasma are lysed and the enzymes react with the MycoAlert® substrate catalyzing the conversion of ADP to ATP. By measuring the level of ATP in a sample both before and after the addition of the MycoAlert® substrate a ratio can be obtained which is indicative of the presence or absence of mycoplasma. The mycoplasma test was assayed in duplicate from the culture supernatants of the cell lines and compared to negative and positive controls (MycoAlert® Assay Control Set, Ref LT07-518, Cambrex) (Internal Standard Operating Procedure No TEC-007/002). Both HCC1954 and SK-BR-3 tumour cells (5,000 cells per well) were plated in 96-well flat-bottom microtitration plates (Ref 167008, Nunc, Dutscher, Brumath, France) and incubated at 37° C. for 24 hours before treatment in 190 μl of drug-free culture medium supplemented with 10% FBS. Both HCC1954 and SK-BR-3 tumour cell lines were incubated for 72 hours with […], in ¼ dilution steps, of the test substances (ranging from […]) to be tested as well as paclitaxel (ranging from 10^−7 to 10^−12 M). The cells (190 μl) will be incubated in a 200 μl final volume of culture medium supplemented with 10% FBS containing test substances at 37° C. under 5% CO2. One experiment is performed, each concentration being issued from quadruplicate. Control cells are treated with corresponding vehicle alone. At the end of treatments, the cytotoxic activity is evaluated by a MTS assay. […] Like MTT, MTS is bioreduced by cells into a formazan product that is directly soluble in culture medium without processing, unlike MTT.
(§2) At the end of the cells treatment, 40 μl of a 0.22 μm filtered freshly combined solution of MTS (20 ml at 2 mg/ml, Ref G1111A, Promega, Charbonnières, France) and PMS (1 ml at 0.92 mg/ml, Ref P9625, Sigma) in Dulbecco's Phosphate Buffered Saline (DPBS, Ref 17-513F, Cambrex), were added in each well. Culture plates were incubated for 2 h at 37° C. Absorbency (OD) will be measured at 490 nm in each well using VICTOR^3™ 1420 multilabeled counter (Wallac, PerkinElmer, Courtaboeuf, France).

SK-BR-3 tumor cells = assay: Cytotoxicity, MTS assay, SK-BR-3; assay type: cell-based; settings: Homo sapiens, 72 hours
Protocol: as §1, §2

[1] = rcm bond, Grubbs II, toluene, 2.0 mM, 80.0 °C
HSP90 = HSP90 (Homo sapiens, UniProt P07900); assay: HSP90 affinity, competition assay with geldanamycin; assay type: binding
IGF1-R = target: T1, IGF1-R (Homo sapiens, UniProt P08069); assay: Radiometric protein kinase assay, IGF1-R; assay type: biochemical; settings: 1 μM ATP; read-out: Inhibitory activity (IC50:μM) IGF1-R
T1 construct: host or cells: Sf9 insect cells (baculovirus)
Description: (§3) All protein kinases were expressed in Sf9 insect cells as human recombinant GST-fusion proteins or His-tagged proteins by means of the baculovirus expression system. Kinases were purified by affinity chromatography using either GSH-agarose (Sigma) or Ni-NTH-agarose (Qiagen). The purity of each kinase was checked by SDS-PAGE/silver staining and the identity of each kinase was verified by western blot analysis with kinase specific antibodies or by mass spectroscopy.
(§4) A radiometric protein kinase assay (^33PanQinase® Activity Assay) was used for measuring the kinase activity of the 24 protein kinases. All kinase assays were performed in 96-well FlashPlates™ from Perkin Elmer (Boston, Mass., USA) in a 50 μl reaction volume. The reaction cocktail was pipetted in 4 steps in the following order: • 20 μl of assay buffer • 5 μl of ATP solution (in H2O) • 5 μl of test compound (in 10% DMSO) • 10 μl of substrate/10 […] of enzyme solution (premixed)
(§5) The assay for all enzymes contained 60 mM HEPES-NaOH, pH 7.5, 3 mM MgCl2, 3 mM MnCl2, 3 μM Na-orthovanadate, 1.2 mM DTT, 50 μg/ml PEG20000, 1 μM [γ-^33P]-ATP (approx. 5×10^05 cpm per well).
(§6) For the 24 kinase assays, the following amounts of enzyme and substrate were used per well:
(§7) The reaction cocktails were incubated at 30° C. for 80 minutes. The reaction was stopped with 50 μl of 2% (v/v) H3PO4, plates were aspirated and washed two times with 200 μl of 0.9% (w/v) NaCl or 200 μl H2O. Incorporation of ^33Pi was determined with a microplate scintillation counter (Microbeta Trilux, Wallac).
(§8) The median value of the counts in column 1 (n=8) of each assay plate was defined as “low control”. This value reflects unspecific binding of radioactivity to the plate in the absence of a protein kinase but in the presence of the substrate. The median value of the counts in column 7 of each assay plate (n=8) was taken as the “high control”, i.e. full activity in the absence of any inhibitor. The difference between high and low control was taken as 100% activity.
(§9) As part of the data evaluation the low control value from a particular plate was subtracted from the high control value as well as from all 80 “compound values” of the corresponding plate. The residual activity (in %) for each well of a particular plate was calculated by using the following formula: Res. Activity (%)=100×[(cpm of compound−low control)/(high control−low control)]
(§10) The residual activities for each concentration and the compound IC50 values were calculated using Quattro Workflow V2.1.0.0 (Quattro Research GmbH, Munich, Germany; www.quattro-research.com). The model used was “Sigmoidal response (variable slope)” with parameters “top” fixed at 100% and “bottom” at 0%.

Aurora-A = target: T2, Aurora-A (Homo sapiens, UniProt O14965); assay: Radiometric protein kinase assay, Aurora-A; assay type: biochemical; settings: 1 μM ATP; read-out: Inhibitory activity (IC50:μM) Aurora-A
T2 construct: host or cells: Sf9 insect cells (baculovirus)
T2 sequence (O14965 1-403): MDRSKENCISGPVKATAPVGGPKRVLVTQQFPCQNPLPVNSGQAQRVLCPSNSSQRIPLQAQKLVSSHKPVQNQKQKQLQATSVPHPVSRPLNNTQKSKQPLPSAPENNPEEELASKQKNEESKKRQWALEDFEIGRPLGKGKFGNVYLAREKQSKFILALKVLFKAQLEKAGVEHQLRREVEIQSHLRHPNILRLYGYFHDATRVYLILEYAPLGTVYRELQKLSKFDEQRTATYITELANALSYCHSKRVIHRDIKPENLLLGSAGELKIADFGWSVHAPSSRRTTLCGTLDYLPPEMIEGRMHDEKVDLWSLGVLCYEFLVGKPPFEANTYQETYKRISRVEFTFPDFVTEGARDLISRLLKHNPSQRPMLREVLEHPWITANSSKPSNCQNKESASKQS
Description: as §3, §4, §5, §6, §7, §8, §9, §10

SRC = target: T3, SRC (Homo sapiens, UniProt P12931); assay: Radiometric protein kinase assay, SRC; assay type: biochemical; settings: 1 μM ATP; read-out: Inhibitory activity (IC50:μM) SRC
T3 construct: host or cells: Sf9 insect cells (baculovirus)
Description: as §3, §4, §5, §6, §7, §8, §9, §10

EGF-R = target: T4, EGF-R (Homo sapiens, UniProt P00533); assay: Radiometric protein kinase assay, EGF-R; assay type: biochemical; settings: 1 μM ATP; read-out: Inhibitory activity (IC50:μM) EGF-R
T4 construct: host or cells: Sf9 insect cells (baculovirus)
Description: as §3, §4, §5, §6, §7, §8, §9, §10

panel of 24 kinase = assay: Radiometric protein kinase assay (33PanQinase), panel of 24 kinases; assay type: biochemical, human; settings: at 10 μM
Description: as §3
A radiometric protein kinase assay (^33PanQinase® Activity Assay) was used for measuring the kinase activity of the 24 protein kinases.
as §5, §7, §8, §9

T1 sequence (P08069 31-1367): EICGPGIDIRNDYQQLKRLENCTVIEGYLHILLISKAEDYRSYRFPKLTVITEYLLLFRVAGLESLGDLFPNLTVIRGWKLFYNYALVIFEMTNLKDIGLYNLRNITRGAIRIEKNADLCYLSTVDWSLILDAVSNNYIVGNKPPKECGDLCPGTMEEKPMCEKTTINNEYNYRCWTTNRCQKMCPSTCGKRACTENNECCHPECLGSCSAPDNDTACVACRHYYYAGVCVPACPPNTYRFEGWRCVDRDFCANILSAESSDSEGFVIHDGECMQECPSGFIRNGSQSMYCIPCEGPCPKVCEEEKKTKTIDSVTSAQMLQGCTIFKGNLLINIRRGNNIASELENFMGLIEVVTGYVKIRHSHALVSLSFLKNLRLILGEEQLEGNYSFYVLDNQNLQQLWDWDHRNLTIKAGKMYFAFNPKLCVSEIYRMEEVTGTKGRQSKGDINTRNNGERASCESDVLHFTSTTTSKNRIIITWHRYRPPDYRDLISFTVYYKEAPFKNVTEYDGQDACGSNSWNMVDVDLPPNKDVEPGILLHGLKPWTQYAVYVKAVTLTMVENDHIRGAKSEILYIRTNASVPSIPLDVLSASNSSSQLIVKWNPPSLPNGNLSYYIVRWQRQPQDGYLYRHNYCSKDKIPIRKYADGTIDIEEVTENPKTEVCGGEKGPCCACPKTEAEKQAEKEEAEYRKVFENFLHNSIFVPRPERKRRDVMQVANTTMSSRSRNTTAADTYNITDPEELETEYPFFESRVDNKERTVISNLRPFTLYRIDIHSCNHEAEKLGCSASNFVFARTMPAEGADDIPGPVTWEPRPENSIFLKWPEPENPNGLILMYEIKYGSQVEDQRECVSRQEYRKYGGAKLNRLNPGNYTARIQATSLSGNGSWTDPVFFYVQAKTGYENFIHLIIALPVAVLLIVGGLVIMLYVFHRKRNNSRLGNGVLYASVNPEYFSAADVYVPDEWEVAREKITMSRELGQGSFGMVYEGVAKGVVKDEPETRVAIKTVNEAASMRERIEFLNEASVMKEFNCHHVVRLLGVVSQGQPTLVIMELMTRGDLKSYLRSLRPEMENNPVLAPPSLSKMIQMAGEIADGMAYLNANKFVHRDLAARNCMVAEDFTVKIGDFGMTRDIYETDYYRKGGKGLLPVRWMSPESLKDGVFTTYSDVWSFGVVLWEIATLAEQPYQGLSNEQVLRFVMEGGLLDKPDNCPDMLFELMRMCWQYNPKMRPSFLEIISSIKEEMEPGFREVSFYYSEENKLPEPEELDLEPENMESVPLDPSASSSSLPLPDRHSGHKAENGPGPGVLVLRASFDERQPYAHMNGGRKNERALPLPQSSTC
T3 sequence (P12931 whole entry): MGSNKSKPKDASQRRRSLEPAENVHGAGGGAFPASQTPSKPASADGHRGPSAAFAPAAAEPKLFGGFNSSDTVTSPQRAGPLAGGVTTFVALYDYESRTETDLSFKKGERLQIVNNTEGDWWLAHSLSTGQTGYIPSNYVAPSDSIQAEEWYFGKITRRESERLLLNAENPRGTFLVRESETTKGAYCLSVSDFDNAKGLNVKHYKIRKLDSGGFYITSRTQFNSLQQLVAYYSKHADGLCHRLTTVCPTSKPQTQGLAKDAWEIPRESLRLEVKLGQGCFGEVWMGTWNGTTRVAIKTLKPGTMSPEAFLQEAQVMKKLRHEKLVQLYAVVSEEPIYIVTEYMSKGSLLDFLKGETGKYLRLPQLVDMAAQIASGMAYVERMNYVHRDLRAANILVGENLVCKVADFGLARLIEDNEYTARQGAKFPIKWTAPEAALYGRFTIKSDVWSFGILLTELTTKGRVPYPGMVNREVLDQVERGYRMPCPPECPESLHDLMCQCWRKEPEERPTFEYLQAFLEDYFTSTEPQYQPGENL
T4 sequence (P00533 25-1210): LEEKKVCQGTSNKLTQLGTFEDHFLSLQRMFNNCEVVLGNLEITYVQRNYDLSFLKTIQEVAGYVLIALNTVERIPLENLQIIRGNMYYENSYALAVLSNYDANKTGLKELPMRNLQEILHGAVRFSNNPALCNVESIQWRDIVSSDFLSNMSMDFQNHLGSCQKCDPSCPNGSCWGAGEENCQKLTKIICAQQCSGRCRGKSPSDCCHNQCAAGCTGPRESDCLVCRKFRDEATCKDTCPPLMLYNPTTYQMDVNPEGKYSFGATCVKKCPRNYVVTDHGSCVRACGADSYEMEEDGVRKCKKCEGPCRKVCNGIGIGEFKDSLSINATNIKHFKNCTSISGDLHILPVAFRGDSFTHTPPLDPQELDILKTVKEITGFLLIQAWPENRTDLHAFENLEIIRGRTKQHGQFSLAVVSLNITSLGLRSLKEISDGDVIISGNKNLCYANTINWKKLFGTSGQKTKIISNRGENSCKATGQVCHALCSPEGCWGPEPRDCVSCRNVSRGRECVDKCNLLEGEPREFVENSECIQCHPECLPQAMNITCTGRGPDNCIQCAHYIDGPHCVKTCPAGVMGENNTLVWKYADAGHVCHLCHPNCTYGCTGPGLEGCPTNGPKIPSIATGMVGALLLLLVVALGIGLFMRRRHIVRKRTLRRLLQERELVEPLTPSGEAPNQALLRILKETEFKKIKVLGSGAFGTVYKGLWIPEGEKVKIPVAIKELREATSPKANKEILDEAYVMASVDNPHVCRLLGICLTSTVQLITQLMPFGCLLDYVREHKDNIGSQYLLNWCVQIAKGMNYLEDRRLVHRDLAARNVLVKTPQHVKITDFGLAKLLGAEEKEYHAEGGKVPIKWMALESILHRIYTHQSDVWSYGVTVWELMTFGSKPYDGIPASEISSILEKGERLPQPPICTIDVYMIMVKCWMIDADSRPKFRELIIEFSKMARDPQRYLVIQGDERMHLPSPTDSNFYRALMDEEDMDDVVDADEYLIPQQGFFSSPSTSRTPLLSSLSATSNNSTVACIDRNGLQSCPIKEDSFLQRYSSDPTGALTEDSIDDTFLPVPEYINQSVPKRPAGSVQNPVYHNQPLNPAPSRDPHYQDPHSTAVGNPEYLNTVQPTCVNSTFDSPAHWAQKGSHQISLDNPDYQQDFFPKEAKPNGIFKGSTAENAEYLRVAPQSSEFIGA

Row | Compound | EC50 (HCC1954 tumor cells) [µM] | EC50 (SK-BR-3 tumor cells) [µM] | also measured
1 | O=C(CON=C1/C=C/CC/C=C/CCOC(=O)c2c(O)cc(O)c(Cl)c2C1)NCCO [2a-4] | > 10 | 7.5 | 
2 | O=C1OCC/C=C\CC/C=C/C(=NOCC(=O)N2CCCCC2)Cc2c(Cl)c(O)cc(O)c21 [2a-5] | 9.5 | 2.5 | 
3 | C=CCC/C=C/C(Cc1c(Cl)c(O)cc(O)c1C(=O)OCCC=C)=NOCC(=O)N1CCCCC1 [2a-7] | > 10 | > 10 | 
4 | C[C@@H]1CC=CCC/C=C/C(=O)Cc2c(Cl)c(O[Si](C)(C)C(C)(C)C)cc(O[Si](C)(C)C(C)(C)C)c2C(=O)O1 |  |  | ring closure, yield of all isomers ([1]; from C=CCC/C=C/C(=O)Cc1c(Cl)c(O[Si](C)(C)C(C)(C)C)cc(O[Si](C)(C)C(C)(C)C)c1C(=O)O[C@H](C)CC=C, 12.0 h): 87%
5 | O=C1OCC/C=C/CCCC/C(=N/OCC(=O)N2CCCCC2)Cc2c(Cl)c(O)cc(O)c21 [2a-6] | 5.2 | > 10 | 
6 | C[C@@H]1C/C=C/CC/C=C/C(=N/OCC(=O)N2CCCCC2)Cc2c(Cl)c(O)cc(O)c2C(=O)O1 [2a-9] | 0.89 | 0.45 | 
7 | CCOCOc1cc(OCOCC)c2c(c1Cl)CC(=O)C=CCCC=CCC(C)OC2=O (centres unmarked) [2-112, 1-Chloro-2,4-bis-ethoxymethoxy-7-methyl-7,8,11,12-tetrahydro-16H-6-oxa-benzocyclotetradecene-5,15-dione] |  |  | affinity for / inhibition of HSP90 (in words) (HSP90): no affinity
8 | O=C1/C=C/CCC2OC2C[C@H](c2ccccc2)OC(=O)c2c(O)cc(O)c(Cl)c2C1 (some centres unmarked) [A5] |  |  | IC50 (IGF1-R): 11 µM
9 | O=C1OCC/C=C/CC/C=C/C(=NOCC(=O)N2CCNCC2)Cc2c(Cl)c(O)cc(O)c21 [2a-15] | > 10 | > 10 | 
10 | CNC(=O)CO/N=C1/C=C/CC/C=C/CCOC(=O)c2c(O)cc(O)c(Cl)c2C1 [2a-8] | > 10 | > 10 | 
11 | O=C(CON=C1/C=C/CC/C=C/CCOC(=O)c2c(O)cc(O)c(Cl)c2C1)NCc1ccccc1 [2a-17] | 8.5 | 3.5 | 
12 | O=C1Cc2c(Cl)c(O)cc(O)c2C(=O)O[C@H](c2ccccc2)C/C=C/CCC(Cl)C1 (some centres unmarked) [A3] |  |  | IC50 (Aurora-A): 12 µM
13 | O=C1OCC/C=C/CC/C=C/C(=NOCC(=O)N2CCOCC2)Cc2c(Cl)c(O)cc(O)c21 [2a-18] | > 10 | > 10 | 
14 | CCOCOc1cc2c(c(OCOCC)c1)C(=O)OC(C)CC=CCCC=CC(=O)C2 (centres unmarked) [2-120, 2,4-Bis-ethoxymethoxy-7-methyl-7,8,11,12-tetrahydro-16H-6-oxa-benzocyclotetradecene-5,15-dione] |  |  | affinity for / inhibition of HSP90 (in words) (HSP90): no affinity
15 | O=C1OCC/C=C/CC/C=C/C(=NOCC(=O)N2CCCCCC2)Cc2c(Cl)c(O)cc(O)c21 [2a-11] | 0.52 | 0.31 | 
16 | COC1CC/C=C/C[C@H](c2ccccc2)OC(=O)c2c(O)cc(O)c(Cl)c2CC(=O)C1 (some centres unmarked) [A2] |  |  | IC50 (SRC): 8 µM
17 | CCOCOc1cc(OCOCC)c2c(c1Cl)CC(=O)C=CCCC=CC[C@@H](C)OC2=O |  |  | ring closure, yield of all isomers ([1]; from C=CCCC=CC(=O)Cc1c(Cl)c(OCOCC)cc(OCOCC)c1C(=O)O[C@H](C)CC=C): 94%
18 | CCOCOc1cc2c(c(OCOCC)c1)C(=O)O[C@H](c1ccccc1)C/C=C/CC/C=C/C(=O)C2 [A-1] |  |  | IC50 (EGF-R): 33 µM; IC50 (IGF1-R): 23 µM; IC50 (SRC): 11 µM
19 | O=C(CON=C1/C=C/CC/C=C/CCOC(=O)c2c(O)cc(O)c(Cl)c2C1)NC1CCCCC1 [2a-16] | 0.45 | 0.55 | 
20 | C[C@@H]1C/C=C/CC/C=C/C(=O)Cc2c(Cl)c(O)cc(O)c2C(=O)O1 [2a-14] | 1.2 | 2.8 | 
21 | CCOCOc1cc2c(c(OCOCC)c1)C(=O)O[C@H](C)CC=CCCC=CC(=O)C2 |  |  | ring closure, yield of all isomers ([1]; from C=CCCC=CC(=O)Cc1cc(OCOCC)cc(OCOCC)c1C(=O)O[C@H](C)CC=C, 2 steps): 40%
22 | C[C@@H]1CC=CCC/C=C/C(=O)Cc2c(Cl)c(OCOCC[Si](C)(C)C)cc(OCOCC[Si](C)(C)C)c2C(=O)O1 |  |  | ring closure, yield of all isomers ([1]; from C=CCC/C=C/C(=O)Cc1c(Cl)c(OCOCC[Si](C)(C)C)cc(OCOCC[Si](C)(C)C)c1C(=O)O[C@H](C)CC=C, 12.0 h): 87%
23 | CCON=C1/C=C/CC/C=C/CCOC(=O)c2c(O)cc(O)c(Cl)c2C1 [2a-22] | 9.8 | 3.8 | 
24 | COC1CC/C=C/CCOC(=O)c2c(O)cc(O)c(Cl)c2C/C(=N/OCC(=O)N2CCCCC2)C1 (centres unmarked) [2a-10] | > 10 | > 10 | 
25 | O=C1OCC/C=C/CC/C=C/C(=NOCc2ccccc2)Cc2c(Cl)c(O)cc(O)c21 [2a-3] | 3 | 4.5 | 
26 | C[C@@H]1C/C=C/CC/C=C/C(=O)Cc2c(Cl)c(O)cc(O)c2C(=O)O1 [pochonin D, reference compound] |  |  | IC50 (HSP90): 80 nM; inhibition in a panel of 24 kinase (panel of 24 kinase): no significant activity
